Experimental data published in patent US11702707B2, “Systems and methods for assessing contamination of drinking water” (priority 2011, dated 2023).

Tested on: HepG2 cells
Test: FACTORIAL transcription factor signature assay (reporter transcription units) in a test cell system
Assay type: cell-based, human

Row | Compound | most affected reporter transcription units (transcription factor signature) (24 hours after exposure) | also measured
1 | O=Cc1c2[nH]c3ccccc3c2cc2[nH]c3ccccc3c12 [6-formylindolo-[3,2-b]carbazole] | – | specific pathway shown by fluorescence peak manifestation (transcription factor signature) (HepG2 cells, after 24 hours exposure): Ahryloxane receptor (AhR)
2 | [Cl][Cd][Cl] [cadmium dichloride] | – | reporter elements with most pronounced cellular response (transcription factor signature) (24 hours after exposure, 2.5 μM, 0.6 μM, 0.16 μM and 0.04 μM): most pronounced for the metallothionein response element (MRE) and the heat shock-response element (HSE)
3 | lipopolysaccharide [endotoxin (lipopolysaccharide, LPS)] | NF-kappaB and Interferon-specific response element (ISRE) | –
4 | triphenyltin | cellular heat shock response element (HSE), the peroxisome proliferator activating protein (PPAR) and the oxidative stress-specific RTU, NRF-2/ARE | –
